Laboratory results: PubChem BioAssay AID248 (DTP/NCI, 2004)
“And” between values parts separate entries of the source, which are not always exact repeats. Identical values can stand only once. Toxic doses and inconclusive results are not listed.

Tested on: L1210 leukemia ip in BDF1 mice, survival T/C
Assay: NCI In Vivo Anticancer Drug Screen. Data for tumor model L1210 Leukemia (intraperitoneal) in B6D2F1 (BDF1) mice
Conditions: endpoint: mean survival time, higher = longer survival
Outline: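 Mice bearing the transplanted tumor received compound or vehicle. Survival of the treated group was divided by that of the vehicle-treated control group to give the ratio.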

[1] = dose: 100.0 mg/kg/injection, schedule: Q01DX009 (ip), vehicle: Klucel (hydroxypropylcellulose) (HPC)
[2] = dose: 100.0 mg/kg/injection, schedule: Q04DX003 (ip), vehicle: Klucel (hydroxypropylcellulose) (HPC)
[3] = dose: 200.0 mg/kg/injection, schedule: Q01DX009 (ip), vehicle: Klucel (hydroxypropylcellulose) (HPC)
[4] = dose: 200.0 mg/kg/injection, schedule: Q04DX003 (ip), vehicle: Klucel (hydroxypropylcellulose) (HPC)
[5] = dose: 400.0 mg/kg/injection, schedule: Q01DX009 (ip), vehicle: Klucel (hydroxypropylcellulose) (HPC)
[6] = dose: 100.0 mg/kg/injection, schedule: Q04DX002 (ip), vehicle: Klucel (hydroxypropylcellulose) (HPC)
[7] = dose: 200.0 mg/kg/injection, schedule: Q04DX002 (ip), vehicle: Klucel (hydroxypropylcellulose) (HPC)
[8] = dose: 400.0 mg/kg/injection, schedule: Q04DX002 (ip), vehicle: Klucel (hydroxypropylcellulose) (HPC)
[9] = dose: 100.0 mg/kg/injection, schedule: Q01DX001 (sc), vehicle: steriod suspending solution
[10] = dose: 200.0 mg/kg/injection, schedule: Q01DX001 (sc), vehicle: steriod suspending solution
[11] = dose: 400.0 mg/kg/injection, schedule: Q01DX001 (sc), vehicle: steriod suspending solution
[12] = dose: 100.0 mg/kg/injection, schedule: Q01DX001 (ip), vehicle: carboxymethylcellulose (CMC)
[13] = dose: 200.0 mg/kg/injection, schedule: Q01DX001 (ip), vehicle: carboxymethylcellulose (CMC)
[14] = dose: 400.0 mg/kg/injection, schedule: Q01DX001 (ip), vehicle: carboxymethylcellulose (CMC)
[15] = dose: 100.0 mg/kg/injection, schedule: Q04DX003 (ip), vehicle: saline with Tween-80
[16] = dose: 200.0 mg/kg/injection, schedule: Q04DX003 (ip), vehicle: saline with Tween-80
[17] = dose: 400.0 mg/kg/injection, schedule: Q04DX003 (ip), vehicle: saline with Tween-80
[18] = dose: 100.0 mg/kg/injection, schedule: Q01DX009 (ip), vehicle: saline sonified
[19] = dose: 100.0 mg/kg/injection, schedule: Q04DX003 (ip), vehicle: saline sonified

For CC1NCCNCCNCCNC(C)c2cccc1n2 (stereo not given), the T/C (dose: 25.0 mg/kg/injection, schedule: Q04DX002 (ip), vehicle: saline) was 90 % of control, the T/C (dose: 50.0 mg/kg/injection, schedule: Q04DX002 (ip), vehicle: saline) was 107 % of control and the T/C (dose: 100.0 mg/kg/injection, schedule: Q04DX002 (ip), vehicle: saline) was 89 % of control.

With CC(=O)CN1C(=O)c2ccccc2C1=O the T/C [1] was 102 % of control, the T/C [2] was 111 % of control and the T/C [3] was 108 % of control. For the same compound, the T/C [4] was 104 % of control, the T/C [5] was 105 % of control and the T/C (dose: 400.0 mg/kg/injection, schedule: Q04DX003 (ip), vehicle: Klucel (hydroxypropylcellulose) (HPC)) was 98 % of control.

CCOC(=O)c1cc(N(CCOS(C)(=O)=O)CCOS(C)(=O)=O)ccc1N was tested, and the T/C (dose: 1.8 mg/kg/injection, schedule: Q01DX015 (ip), vehicle: saline) was 95 % of control, the T/C (dose: 2.0 mg/kg/injection, schedule: Q01DX015 (ip), vehicle: saline) was 89 % of control and the T/C (dose: 3.0 mg/kg/injection, schedule: Q01DX015 (ip), vehicle: saline) was 106 % of control. The T/C (dose: 5.0 mg/kg/injection, schedule: Q01DX001 (ip), vehicle: saline) was 116 % of control and the T/C (dose: 7.0 mg/kg/injection, schedule: Q01DX015 (ip), vehicle: saline) was 90 % of control.

CCCCCCCCCCCCCCCCCCNC(=S)NCCCCCCCCCCCCCCCC was tested, and the T/C (dose: 55.0 mg/kg/injection, schedule: Q01DX Z (ip), vehicle: methylcellulose (MC)) was 123 % of control, the T/C (dose: 83.0 mg/kg/injection, schedule: Q01DX Z (ip), vehicle: methylcellulose (MC)) was 106 % of control and the T/C (dose: 125.0 mg/kg/injection, schedule: Q01DX Z (ip), vehicle: methylcellulose (MC)) was 104 % of control.

For CC(CC(=O)c1ccccc1)C(C(=O)c1ccccc1)c1ccccc1 (stereo not given), the T/C (dose: 50.0 mg/kg/injection, schedule: Q01DX009 (ip), vehicle: other) was 101 % of control, the T/C (dose: 100.0 mg/kg/injection, schedule: Q01DX009 (ip), vehicle: other) was 101 % of control and the T/C (dose: 200.0 mg/kg/injection, schedule: Q01DX009 (ip), vehicle: other) was 101 % of control.

Cc1n[n+]([O-])c(C)cc1Cl was tested, and the T/C [6] was 104 % of control, the T/C [7] was 104 % of control and the T/C [8] was 119 % of control.

With Cc1cc2ccccc2[n+](C)c1-c1ccccc1Cl the T/C (dose: 12.5 mg/kg/injection, schedule: Q04DX003 (ip), vehicle: saline) was 102 % of control.

For CC(O)C12OC1CC1C3CC4OC45CC(O)CCC5(C)C3CCC12C (stereo not given), the T/C [9] was 106 % of control, the T/C [10] was 103 % of control and the T/C [11] was 109 % of control.

In the case of Cc1cccc(Cl)c1NC(=O)COc1ccc(Cl)cc1, the T/C [1] is reported as 102 % of control, the T/C [3] is reported as 89 % of control and the T/C [5] is reported as 93 % of control.

In the case of COC(=O)C1(C)COP(=O)(Nc2ccc(OC)cc2)OC1 (stereo not given), the T/C (dose: 100.0 mg/kg/injection, schedule: Q01DX001 (ip), vehicle: saline) is reported as 89 % of control and the T/C (dose: 200.0 mg/kg/injection, schedule: Q01DX001 (ip), vehicle: saline) is reported as 89 % of control.

With CC(=O)C1CCC2C3CC=C4CC(O)CCC4(C)C3CCC12C (stereo not given) the T/C [6] was 91 % of control, the T/C [2] was 89 % of control and the T/C [7] was 100 % of control. The T/C [4] was 92 % of control and the T/C [8] was 91 % of control.

In the case of COC(=O)C(Cc1ccc(C)cc1)N1CCCCC1 (stereo not given), the T/C [12] is reported as 101 % of control, the T/C [13] is reported as 101 % of control and the T/C [14] is reported as 98 % of control.

In the case of Nc1cc(C(=O)O)[nH]c(=S)n1, the T/C (dose: 100.0 mg/kg/injection, schedule: Q01DX Z (ip), vehicle: methylcellulose (MC)) is reported as 100 % of control and the T/C (dose: 200.0 mg/kg/injection, schedule: Q01DX Z (ip), vehicle: methylcellulose (MC)) is reported as 100 % of control.

For COc1ccc2c(c1O)-c1cc(O)cc3c1C(C2)NCC3 (stereo not given), the T/C (dose: 0.63 mg/kg/injection, schedule: Q04DX003 (ip), vehicle: DMSO) was 105 % of control, the T/C (dose: 1.25 mg/kg/injection, schedule: Q04DX003 (ip), vehicle: DMSO) was 96 % of control and the T/C (dose: 2.5 mg/kg/injection, schedule: Q04DX003 (ip), vehicle: DMSO) was 93 % of control.

For COC(=O)C(NC(=O)OCc1ccccc1)C(=O)OC, the T/C [15] was 100 % of control, the T/C [16] was 100 % of control and the T/C [17] was 98 % of control.

In the case of C=CC(C)C1CCC2(C)C3=C(C(=O)CC12C)C1(C)C/C(=N/O)C(O)C(C)(C)C1=C(O)C3=O (stereo not given), the T/C (dose: 100.0 mg/kg/injection, schedule: Q04DX003 (ip), vehicle: saline) is reported as 98 % of control, the T/C (dose: 200.0 mg/kg/injection, schedule: Q04DX003 (ip), vehicle: saline) is reported as 95 % of control and the T/C (dose: 400.0 mg/kg/injection, schedule: Q04DX003 (ip), vehicle: saline) is reported as 98 % of control.

In the case of O=NN(CCF)C(=O)NCCCl, the T/C (dose: 9.0 mg/kg/injection, schedule: Q01DX001 (ip), vehicle: Klucel (hydroxypropylcellulose) (HPC)) is reported as 185 % of control and 220 % of control, the T/C (dose: 14.0 mg/kg/injection, schedule: Q01DX001 (ip), vehicle: Klucel (hydroxypropylcellulose) (HPC)) is reported as 352 % of control and 355 % of control and the T/C (dose: 21.0 mg/kg/injection, schedule: Q01DX001 (ip), vehicle: Klucel (hydroxypropylcellulose) (HPC)) is reported as 419 % of control and 564 % of control. The T/C (dose: 32.0 mg/kg/injection, schedule: Q01DX001 (ip), vehicle: Klucel (hydroxypropylcellulose) (HPC)) was 746 % of control.

In the case of CCOC(=O)NCNC(=O)OCC, the T/C [18] is reported as 104 % of control, the T/C [19] is reported as 100 % of control and the T/C (dose: 200.0 mg/kg/injection, schedule: Q01DX009 (ip), vehicle: saline sonified) is reported as 95 % of control. The T/C (dose: 200.0 mg/kg/injection, schedule: Q04DX003 (ip), vehicle: saline sonified) was 97 % of control, the T/C (dose: 400.0 mg/kg/injection, schedule: Q01DX009 (ip), vehicle: saline sonified) was 91 % of control and the T/C (dose: 400.0 mg/kg/injection, schedule: Q04DX003 (ip), vehicle: saline sonified) was 94 % of control.

For CC(=O)c1ccc2c(c1)Cc1cc(Br)ccc1-2, the T/C [12] was 97 % of control, the T/C [13] was 89 % of control and the T/C [14] was 97 % of control.

With O=C(NC(Cc1ccccc1)C(=O)Oc1cc(Cl)c(Cl)cc1Cl)OCc1ccccc1 (stereo not given) the T/C (dose: 100.0 mg/kg/injection, schedule: Q01DX001 (ip), vehicle: other) was 91 % of control, the T/C (dose: 200.0 mg/kg/injection, schedule: Q01DX001 (ip), vehicle: other) was 91 % of control and the T/C (dose: 400.0 mg/kg/injection, schedule: Q01DX001 (ip), vehicle: other) was 97 % of control.

With CCCC(C)(C)C(=O)Nc1cccc(OC(=O)NC(C)(C)C)c1 the T/C (dose: 100.0 mg/kg/injection, schedule: Q01DX009 (ip), vehicle: saline with Tween-80) was 88 % of control, the T/C (dose: 200.0 mg/kg/injection, schedule: Q01DX009 (ip), vehicle: saline with Tween-80) was 86 % of control and the T/C (dose: 400.0 mg/kg/injection, schedule: Q01DX009 (ip), vehicle: saline with Tween-80) was 89 % of control.

With CC(=O)OC1CC2C(C)(C)C(=O)C3OC3C2(C)C2CCC3(C)C(=CC(=O)OC3c3ccoc3)C12C (stereo not given) the T/C [9] was 101 % of control, the T/C [10] was 104 % of control and the T/C [11] was 103 % of control.

In the case of C[n+]1ccn2ccccc21, the T/C (dose: 50.0 mg/kg/injection, schedule: Q01DX001 (ip), vehicle: saline with Tween-80) is reported as 104 % of control and the T/C (dose: 100.0 mg/kg/injection, schedule: Q01DX001 (ip), vehicle: saline with Tween-80) is reported as 109 % of control.

With CSCCCNC(=O)c1csc(CCNC(=O)c2ccccc2)n1 the T/C [15] was 100 % of control, the T/C [16] was 100 % of control and the T/C [17] was 91 % of control.

With O=C(Nc1nccs1)Nc1ccc(Cl)cc1[N+](=O)[O-] the T/C [1] was 105 % of control, the T/C [3] was 100 % of control and the T/C [5] was 102 % of control.

With CCCCNC(C)(C)C(SSC(c1cccs1)C(C)(C)NCCCC)c1cccs1 (stereo not given) the T/C (dose: 25.0 mg/kg/injection, schedule: Q01DX009 (ip), vehicle: saline sonified) was 100 % of control, the T/C (dose: 50.0 mg/kg/injection, schedule: Q01DX009 (ip), vehicle: saline sonified) was 100 % of control and the T/C [18] was 96 % of control. The T/C [19] was 90 % of control.
